PubChem BioAssay (NCI)
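Interpolation was linear, between the two tested concentrations surrounding the appropriate level; five concentrations were tested over 48 hours in 96-well plates. Here, GI50 denotes the concentration required for 50% inhibition of growth. TGI: total growth inhibition.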

Columns and labels:
Test in all cases: NCI tumour cell line growth inhibition, 48 h
[1] = system: SN12C renal
[2] = system: SR leukemia
[3] = system: A498 renal
[4] = system: SNB-19 CNS
[5] = system: HCC-2998 colon
[6] = system: HCT-116 colon
[7] = system: UACC-62 melanoma
[8] = system: EKVX NSCLC
[9] = system: SF-268 CNS
[10] = system: SF-539 CNS
[11] = system: SNB-75 CNS
[12] = system: 786-0 renal
[13] = system: SF-295 CNS
[14] = system: KM12 colon
[15] = system: MCF7 breast
[16] = system: M14 melanoma
[17] = system: HL-60(TB) leukemia
[18] = system: SK-MEL-28 melanoma
[19] = system: OVCAR-5 ovarian
[20] = system: LOX IMVI melanoma
[21] = system: K-562 leukemia
[22] = system: HCT-15 colon
[23] = system: IGROV1 ovarian
[24] = system: UACC-257 melanoma
[25] = system: SK-MEL-5 melanoma
[26] = system: OVCAR-8 ovarian
[27] = system: COLO 205 colon
[28] = system: TK-10 renal
[29] = system: HS 578T breast
[30] = system: MDA-MB-231 breast
[31] = system: NCI-H23 lung
[32] = system: CCRF-CEM leukemia
[33] = system: ACHN renal
[34] = system: NCI-H460 lung
[35] = system: OVCAR-3 ovarian
[36] = system: HOP-62 NSCLC
[37] = system: OVCAR-4 ovarian
[38] = system: NCI-H522 lung
[39] = system: CAKI-1 renal
[40] = system: U251 CNS
[41] = system: MDA-MB-435
[42] = system: RPMI-8226 leukemia
[43] = system: MOLT-4 leukemia
[44] = system: HT29 colon
[45] = system: NCI-H226 lung
[46] = system: SW-620 colon
[47] = system: DU-145 prostate
[48] = system: T-47D breast
[49] = system: BT-549 breast
[50] = system: NCI/ADR-RES ovarian
[51] = system: UO-31 renal
[52] = system: SK-MEL-2 melanoma
[53] = system: MALME-3M melanoma
[54] = system: HOP-92 NSCLC
[55] = system: RXF 393 renal
[56] = system: A549 NSCLC
[57] = system: PC-3 prostate
[58] = system: SK-OV-3 ovarian

O=C(N/N=C/c1ccc([N+](=O)[O-])o1)c1[nH]c2ccc(Br)cc2c1-c1ccccc1
GI50 [1]: 323 nM
TGI [1]: 1980 nM
GI50 [2]: 143 nM
TGI [2]: 9090 nM
GI50 [3]: 7450 nM
TGI [3]: 24400 nM
GI50 [4]: 337 nM
TGI [4]: 12100 nM
GI50 [5]: 367 nM
TGI [5]: 1600 nM
GI50 [6]: 182 nM
TGI [6]: 980 nM
GI50 [7]: 150 nM
TGI [7]: 2070 nM
GI50 [8]: 1120 nM
TGI [8]: 9140 nM
GI50 [9]: 564 nM
TGI [9]: 11000 nM
GI50 [10]: 177 nM
TGI [10]: 514 nM
GI50 [11]: 216 nM
TGI [11]: 1550 nM
GI50 [12]: 367 nM
TGI [12]: 4750 nM
GI50 [13]: 189 nM
TGI [13]: 1230 nM
GI50 [14]: 410 nM
TGI [14]: 11600 nM
GI50 [15]: 110 nM
TGI [15]: 5530 nM
GI50 [16]: 274 nM
TGI [16]: 1160 nM
GI50 [17]: 235 nM
TGI [17]: 626 nM
GI50 [18]: 1170 nM
TGI [18]: 7190 nM
GI50 [19]: 439 nM
TGI [19]: 14000 nM
GI50 [20]: 190 nM
TGI [20]: 1610 nM
GI50 [21]: 118 nM
TGI [21]: > 100000 nM
GI50 [22]: 230 nM
TGI [22]: 987 nM
GI50 [23]: 340 nM
TGI [23]: 10900 nM
GI50 [24]: 542 nM
TGI [24]: 4350 nM
GI50 [25]: 235 nM
TGI [25]: 638 nM
GI50 [26]: 241 nM
TGI [26]: 677 nM
GI50 [27]: 244 nM
TGI [27]: 577 nM
GI50 [28]: 1530 nM
TGI [28]: 10100 nM
GI50 [29]: 519 nM
TGI [29]: 14600 nM
GI50 [30]: 288 nM
TGI [30]: 1050 nM
GI50 [31]: 393 nM
TGI [31]: 4160 nM
GI50 [32]: 414 nM
TGI [32]: 45800 nM
GI50 [33]: 379 nM
TGI [33]: 6110 nM
GI50 [34]: 331 nM
TGI [34]: 1000 nM
GI50 [35]: 433 nM
TGI [35]: 4090 nM
GI50 [36]: 541 nM
TGI [36]: 5360 nM
GI50 [37]: 720 nM
TGI [37]: 10500 nM
GI50 [38]: 37.4 nM
TGI [38]: 345 nM
GI50 [39]: 382 nM
TGI [39]: 9370 nM
GI50 [40]: 303 nM
TGI [40]: 1560 nM
GI50 [41]: 111 nM
TGI [41]: 293 nM
GI50 [42]: 357 nM
TGI [42]: 12800 nM
GI50 [43]: 356 nM
TGI [43]: 10600 nM
GI50 [44]: 307 nM
TGI [44]: 1270 nM
GI50 [45]: 306 nM
TGI [45]: 1560 nM
GI50 [46]: 359 nM
TGI [46]: 1970 nM
GI50 [47]: 406 nM
TGI [47]: 12200 nM
GI50 [48]: 1790 nM
TGI [48]: 24000 nM
GI50 [49]: 222 nM
TGI [49]: 694 nM
GI50 [50]: 234 nM
TGI [50]: 2830 nM
GI50 [51]: 431 nM
TGI [51]: 7820 nM
GI50 [52]: 335 nM
TGI [52]: 1700 nM
GI50 [53]: 682 nM
TGI [53]: 3320 nM
GI50 [54]: 733 nM
TGI [54]: 4390 nM
GI50 [55]: 294 nM
TGI [55]: 1090 nM
GI50 [56]: 354 nM
TGI [56]: 11800 nM
GI50 [57]: 400 nM
TGI [57]: 6390 nM
GI50 [58]: 501 nM
TGI [58]: 8370 nM
